# Measured values as given in patent publication US20080220066A1 (HENDERSON MORLEY PLC, priority 2005, published 2008).
# Values joined by “and” are separate entries in the source; they are usually repeats but may differ in a detail not shown here. Equal entries are not always repeated. Where two headings read alike, the source gives them in different places.
# Legend:
# MRC5 cells [1] = conditions: uninfected cells; drug(s) at VZV ID 50 concentrations
# Adenovirus = test: 50% plaque inhibitory concentration, Adenovirus; conditions: unidentified adenovirus, A549, read-out: Digoxin IC50
# MRC5 cells [2] = test: MRC5 cell morphology / tolerance; conditions: Frusemide 1.0 mg/ml; Digoxin 0.05 ug/ml; combined dosage at individual ID 50; 72 hours
# [3] = Method: Permeation experiments were carried out using all glass Franz-type cells incorporating callous plantar skin between a donor and receptor phase. Callous cuttings of approximately 0.6 cm diameter were required to fit the customised ‘franz’ cells used. Consequently, an in vitro permeation study was conducted that used 5 cells per gel treatment, with no more than a total of 15 cells being run simultaneously. […] An infinite dose of gel (˜1 g) was added to each donor compartment via syringe and PEG400, being used as a receptor phase in each, thereby enabling adequate ‘sink’ conditions, limiting hydrodynamic boundary effects and tissue swelling effects. The applied gel was occluded with glass cover slips and the cells stirred in a thermostatically controlled water bath, maintaining the skin temperature at 32° C. […] A total of five replicates were carried our for each gel. All samples were immediately analysed by HPLC.
# The breakthrough time was taken from the point at which permeant was first detected in the receptor phase (dependent on the MDL for each permeant). Lag times were calculated by extrapolating the linear section of the cumulative amount permeated (steady state flux) to the X-axis (time).
# physchem = conditions: 32 °C, aqueous with cosolvent or surfactant or cyclodextrin, thermodynamic from solid
# [4] = tested on: Varicella Zoster Virus (VZV)
# Cytomegalovirus = test: 50% plaque inhibitory concentration, Cytomegalovirus; conditions: Human betaherpesvirus 5, MRC5, read-out: Digoxin IC50
# [5] = for Flux: Q24 divided by 24
# [6] = tested on: Herpes simplex virus (HSV); test: HSV standard plaque inhibition assay; type: cell-based
# Source text: Using Herpes simplex virus (HSV), 50% plaque inhibitory dose (1D50) were established using the standard plaque inhibition assay.
# MRC5 cells [7] = test: MRC5 cell replication; conditions: Frusemide 1.0 mg/ml; Digoxin 0.05 μg/ml; both at their VZV ID50 concentrations
# [8] = Saturated solubility in solvents and co-solvent mixes at 32° C
# [9] = tested on: Herpes simplex virus (HSV); test: HSV virus yield (infectious virus particle production); type: cell-based; conditions: solvent as listed per compound; Torasemide at 90 μg/ml
# [10] = tested on: Varicella Zoster Virus (VZV); test: microbe, parasite or virus in culture; conditions: Human alphaherpesvirus 3, MRC5, read-out: Digoxin IC50
# [11] = ‘Max’ Furosemide Gel Formulation
smiles,measurement,setting,value
C[C@H]1O[C@@H](O[C@H]2[C@@H](O)C[C@H](O[C@H]3[C@@H](O)C[C@H](O[C@H]4CC[C@@]5(C)[C@H](CC[C@@H]6[C@@H]5C[C@@H](O)[C@]5(C)[C@@H](C7=CC(=O)OC7)CC[C@]65O)C4)O[C@@H]3C)O[C@@H]2C)C[C@H](O)[C@@H]1O [Digoxin],"MRC5 cell metabolism, MTT assay",MRC5 cells [1],normal levels of metabolism
same,Virus particles per cell,"feline herpesvirus; each drug at its IC50, alone or both combined, No Drug 50",0.75
same,production of infectious virus reduced by,"feline herpesvirus; each drug at its IC50, individually or in combination",98.5%
same,remaining low level of virus replication,feline herpesvirus; each drug individually at its IC50,0.5%
same,IC50,Adenovirus,0.077 ± 0.022 µg/mL
same,"tolerance by MRC5 cells (morphology, replication)",MRC5 cells [2],very well tolerated
same,Lag time,[3]; 40:40:20 Prototype gel,100 h
same,Permeation co-efficient,[3]; 40:40:20 Prototype gel,1.1 × 10^−3 cmhr^−1
same,Steady state flux,[3]; 40:40:20 Prototype gel,1.14 ± 0.28 μc cm^−2hr^−1
same,Breakthrough time,[3]; Dig/Fur Ampule Gel Formulation,~24 h
same,Lag time,[3]; Dig/Fur Ampule Gel Formulation,82 h
same,Steady state flux,[3]; Dig/Fur Ampule Gel Formulation,0.069 μc cm^−2hr^−1
same,"reduction of amount permeated, prototype versus ‘Max’ Digoxin gel",[3]; at 144 hours,3.36 fold
same,steady state of flux,[3]; prototype gel,1.14±0.28 μg cm^−2 hr^−1
same,amount permeated,"[3]; prototype gel, at 144 hours",30 μg cm^−2
same,Lag time,[3]; ‘Max’ Digoxin Gel Formulation,18 h
same,Steady state flux,[3]; ‘Max’ Digoxin Gel Formulation,1.015 μc cm^−2hr^−1
same,Breakthrough time,"[3]; ‘Max’ Digoxin Gel Formulation (50:40:10, 8% HPC, pH 5)",~1 h
same,steady state of flux,[3]; ‘Max’ Digoxin gel formulation,1.015 μg cm^−2 hr^−1
same,amount permeated,"[3]; ‘Max’ Digoxin gel, at 144 hours",101 μg cm^−2
same,Lag time,[3]; [11],68 h
same,Steady state flux,[3]; [11],0.455 μc cm^−2hr^−1
same,Breakthrough time,"[3]; ‘Max’ Furosemide Gel Formulation (50:20:20:10, 8% HPC, pH 5)",~12 h
same,solubility at 24 h,physchem,433 µg/mL
same,VZV plaques,"[4]; Digoxin 0.025 ug/ml, HIGH MOI",TNTC
same,VZV plaques,"[4]; Digoxin 0.025 ug/ml, INTERMEDIATE MOI",TNTC
same,VZV plaques,"[4]; Digoxin 0.025 ug/ml, LOW MOI, control 61",55^
same,VZV plaques,"[4]; Digoxin 0.050 ug/ml, HIGH MOI",TNTC
same,VZV plaques,"[4]; Digoxin 0.050 ug/ml, INTERMEDIATE MOI",TNTC
same,VZV plaques,"[4]; Digoxin 0.050 ug/ml, LOW MOI, control 61",21^3
same,VZV plaques,"[4]; Digoxin 0.100 ug/ml, HIGH MOI",0^4
same,VZV plaques,"[4]; Digoxin 0.100 ug/ml, INTERMEDIATE MOI",0^4
same,VZV plaques,"[4]; Digoxin 0.100 ug/ml, LOW MOI, control 61",0^4
same,VZV plaque formation inhibited by,"[4]; Frusemide at 1.0 mg/ml, Digoxin at 0.05 ug/ml",50%
same,VZV plaques,"[4]; High MOI (100 × Low), drug(s) at IC50",TNTC
same,VZV plaques,"[4]; Intermediate MOI (10 × Low), drug(s) at IC50",TNTC
same,VZV plaques,"[4]; Low MOI, drug(s) at IC50, Control 61",21 and 21^5
same,VZV plaque formation inhibited by,"[4]; each at respective IC50, Low MOI",about 50%
same,IC50,Cytomegalovirus,0.02 ± 0.0075 µg/mL
same,maximum concentrations observed in the receptor phase,[5]; 40:40:20 gels,42.47 µg/mL
same,Release date,[5]; Ampule Formulation,8.1 μg cm^−2 h^0.5
same,Q24,[5]; Ampule Formulation (8% HPC),34 μg cm^−2
same,Flux,[5]; Ampule Formulation,1.4 μg cm^−2 h^−1
same,% applied dose,"[5]; Gel 1:1, pH 7",1.6%
same,Release Rate,"[5]; Gel 1:1, pH 7",3.48 μg cm^−2 h^0.5
same,Flux,"[5]; Gel 1:1, pH 7",0.59 μg cm^−2 h^−1
same,Q24,"[5]; Gel 1:1, prototype 40:40:20 mix, pH 7, 24 h",14.07 μg cm^−2
same,Q24,"[5]; Gel 14:1 (F:D), prototype 40:40:20 mix, […] 981NF, pH 5, 24 h",42.47 μg cm^−2
same,Flux,"[5]; Gel 14:1, pH 5",1.77 μg cm^−2 h^−1
same,% applied dose,"[5]; Gel 14:1, pH 5, assuming 2 g of gel in donor",4.0%
same,Release Rate,"[5]; Gel 14:1, pH 5, gradient of square root of time plot",10.18 μg cm^−2 h^0.5
same,% applied dose,"[5]; Gel 14:1, pH 7",1.6%
same,Flux,"[5]; Gel 14:1, pH 7",0.73 μg cm^−2 h^−1
same,% applied dose,"[5]; Gel 14:1, pH 9",0.1%
same,Flux,"[5]; Gel 14:1, pH 9",0.14 μg cm^−2 h^−1
same,Q24,"[5]; Gel 14:1, prototype 40:40:20 mix, pH 7, 24 h",17.62 μg cm^−2
same,Q24,"[5]; Gel 14:1, prototype 40:40:20 mix, pH 9, 24 h",3.34 μg cm^−2
same,Release date,[5]; HPC Formulation,245 μg cm^−2 h^0.5 and 243 μg cm^−2 h^0.5
same,Q24,"[5]; HPC Formulation (revised 50:40:10 gel, 8% HPC, pH 5, 14:1)",934 μg cm^−2
same,Flux,[5]; HPC Formulation,39 μg cm^−2 h^−1
same,Release date,[5]; Ultrez Formulation,274 μg cm^−2 h^0.5
same,Q24,"[5]; Ultrez Formulation (revised 50:40:10 gel, […] Ultrez, pH 5, 14:1)",1138 μg cm^−2
same,Flux,[5]; Ultrez Formulation,45 μg cm^−2 h^−1
same,"reduction of release rate, 1:1 Gel versus 1:14 Gel",[5]; pH 7,1.2 fold
same,ICVT activity,[6],potent ICVT activity
same,ID50,[6],60 ng per ml
same,comparative ‘ICVT-ivities’,[6],as effective as Lanoxin
same,IC50,"[6]; BHK-21, read-out: Digoxin IC50",0.03 µg/mL
same,IC50,"[6]; MRC5, read-out: Digoxin IC50",0.02 ± 0.0075 µg/mL
same,IC50,"[6]; Vero, read-out: Digoxin IC50",0.06 µg/mL
same,replication of uninfected MRC5 cells,MRC5 cells [7],replicated to normal yields
same,solubility in water,[8]; 32° C,relatively insoluble in water
same,solubility at 24 h,"[8]; 32 °C, organic solvent or mixture, thermodynamic from solid",6270 µg/mL
same,number of moles in saturated solution,[8]; 40:40:20 co-solvents mix,0.55 μmol cm^−3
same,saturation limit,[8]; 40:40:20 co-solvents mix,433 μg cm^−3
same,"increase in solubility, second versus first co-solvent mix",[8]; 50:40:10 versus 40:40:20,−15 fold
same,solubility in each individual solvent,"[8]; ethanol, propylene glycol, PEG400, water, 32° C",highest solubility in ethanol and propylene glycol with relatively low solubility in PEG400 and water
same,HSV yield,[9],HSV yield reduced
same,IC50,[10],0.02 ± 0.0075 µg/mL
